# Source: patent publication US20070280944A1, “Use of 5,10-Methylene Tetrahydrofolate for the Treatment of Cancer” (priority 2004, published 2007)
# How the values were obtained:
# [1] = tested on: human colon carcinoma HT-29; assay: HT-29 Colorectal Carcinoma Nude Mouse Study #1 (tumor volume, survival); type: in vivo, Nude (nu/nu) mice; conditions: for mean tumor volume: 22 days following treatment initiation, mean±SEM, i.p. dosing, in mm³ (unit assumed)
# Description: (§1) Nude (nu/nu) mice were obtained from Charles River Laboratories.
# 5-Fluorouracil (5-FU) was obtained from Calbiochem. Leucovorin (leucovorin) and oxaliplatin were obtained from Sigma-Aldrich.
# Finally, cells were resuspended at 2×10^7 cells/ml in PBS. […] All drugs were dosed daily (0.6 mg/mouse/drug) for five consecutive days with the exception of anti-VEGF and oxaliplatin. Anti-VEGF was dosed once (100 microgram/mouse) on day 5. Oxaliplatin was dosed once on day 1 (0.3mg/mouse). In addition, 5,10-CH2-THFA or leucovorin were injected 20 minutes prior to 5-FU injection. Tumor sizes were measured every 2 to 3 days using calipers.
# (§2) Statistical analysis of tumor and blood data was performed using GraphPad Prism scientific software. Bonferonni's T test was used to compare tumor sizes between multiple groups. The Logrank test was used to determine statistical differences between group survival curves. In some cases, in which only two groups were compared, Student's T test was used to determine the significance between group measurements.
# [2] = tested on: human colon carcinoma HT-29; assay: HT-29 Colorectal Carcinoma Nude Mouse Study #2 (doubling time, tumor volume, survival); type: in vivo, Nude (nu/nu) mice
# From the text: as §1
# 5-Fluorouracil (5-FU) was obtained from Calbiochem. Leucovorin (leucovorin) and oxaliplatin were obtained from Sigma-Aldrich. 5,10 methylenetetrahydofolate was manufactured by Eprova AG. A monoclonal antibody to vascular endothelial growth factor (anti-VEGF) was either obtained from R&D Systems (clone 26503 recognizing the human VEGF isoform 165) or Genentech (Avastin).
# Finally, cells were resuspended at 1×10^7 cells/ml in PBS. […] All drugs were dosed daily (0.6 mg/mouse/drug) for seven consecutive days with the exception of anti-VEGF, dosed twice (100 micrograms/mouse) on days 1 and 7. In addition, 5,10-CH2-THFA or leucovorin were injected 20 minutes prior to 5-FU injection. Tumor sizes were measured every 2 to 3 days using calipers.
# as §2
# Balb/c mice [3] = tested on: Balb/c mice
# Description: (§3) Balb/c mice were obtained from Charles River Laboratories.
# 5-Fluorouracil (5-FU) was obtained from Calbiochem. Leucovorin (folinic acid) was obtained from Sigma-Aldrich.
# All drugs were intraperitoneally injected (100 microliters/mouse, 0.6mg/mouse/drug) using a 28 gauge insulin needle/syringe. 200-250 microliters blood/mouse was collected by retro-orbital puncture into EDTA-coated microtainer tubes (VWR International) on days 0 (prior to drug injection), 8, and 13. Complete blood counts plus blood differentials were determined by Labcorp Corporation of America using a Bayer Advia 120 Hematology analyzer.
# Balb/c mice [4] = type: in vivo
# Description: as §3
# 5-Fluorouracil (5-FU) and leucovorin (leucovorin) were obtained from Sigma-Aldrich. […] Gemcitabine was manufactured by Eli Lilly and purchased from Myoderm Inc.
# Balb/c female mice were injected with combinations of 5-FU, leucovorin, 5,10-CH2-THFA, and gemcitabine. 5-FU, leucovorin, and 5,10-CH2-THFA were intraperitoneally injected (100 microliters/mouse, 0.6 mg/mouse/drug) for five consecutive days (days 1-5). Gemcitabine was intraperitoneally injected (100 microliters/mouse, 100 micrograms/mouse) every three days (days 1, 4, and 7). All drugs were injected using a 27 gauge insulin needle/syringe. Mouse weights were measured using an analytical balance prior to initiation of drug dosing (pretreatment) and on day 8.
# [5] = Weight loss toxicity in the Xeloda HT-29 nude mouse study; type: in vivo, Nude (nu/nu) mice; conditions: maximum toxicity grade, NCI CTC v3 (grade 1 5-<10% weight loss)
# From the text: As a surrogate marker for drug toxicity, we examined mouse body weights over time. Using the National Cancer Institute's Common Toxicity Criteria version 3 grading system for weight loss (Table 11), the maximum toxicity grade of weight loss was plotted (FIG. 21). While Xeloda by itself was relatively nontoxic, inducing only grade 1 toxicity in 36% of the mice, leucovorin increased the overall grade 1-3 toxicity to 90% of mice. This increased toxicity is consistent with phase II human clinical trial results showing leucovorin increased Xeloda toxicity parameters such as diarrhea, vomiting, and mucosal inflammation (Van Cutsem, E., M. Findlay, B. Osterwalder, W. Kocha, D. Dailey, R. Pazdur, J. Cassidy, L. Dirix, C. Twelves, D. Allman, J. F. Seitz, J. Scholmerich, H. U. Burger, and J. Verweij. 2000. Capecitabine, an oral fluoropyrimidine carbamate with substantial activity in advanced colorectal cancer: results of a randomized phase II study. J Clin Oncol 18:1337).
# [6] = tested on: human colon carcinoma HT-29; assay: Nude mouse study on HT-29 colorectal tumor treatment with capecitabine (Xeloda) (doubling time, survival)
# Description: Nude (nu/nu) mice were obtained from Simonsen Laboratories. Mice were 6-8 weeks old at the start of all studies. Mice were maintained in isolated, hepa-filter ventilated cages with 4 mice per cage at Perry Scientific's vivarium (San Diego, Calif.).
# The human colon carcinoma HT-29 was obtained from American Tissue Culture Collection (ATCC). Cells were maintained in DMEM containing 10% fetal bovine serum (FBS), 2 mM 1-glutamine, 100 units/ml penicillin, and 100 micrograms/ml streptomycin (DMEM-10) in a 37° C., 10% CO2 humidified incubator. Cells were passaged every 2-3 days prior to in vivo experiments.
# Capecitabine (Xeloda) was manufactured by Roche Laboratories (Nutley, N.J.) Leucovorin (leucovorin) was obtained from Sigma-Aldrich. 5,10 methylenetetrahydofolate (5,10-CH2-THFA) was manufactured by Eprova AG.
# HT-29 cells were prepared for injection as follows: Confluent tissue culture flasks of HT-29 cells were washed once with PBS followed by cell detachment with trypsin. Detached cells were then washed once in DMEM-10 followed by one wash with PBS. Finally, cells were resuspended in PBS at 10^7 cells/ml. […] Tumor sizes and mouse body weights were measured every 2-4 days. Tumor volume was calculated using the following formula: tumor volume=(length×width^2)/2. […]
# [7] = female, Balb/c, mouse, in vivo, 1 week following drug treatment
# [8] = female, Balb/c, mouse, in vivo, 8 day
smiles,measurement,setting,value
"O=C1[O][Pt]2([NH][C@@H]3CCCC[C@H]3[NH]2)[O]C1=O [Oxaliplatin, oxaliplatin]",mean tumor volume,[1]; Nude mice bearing HT-29 tumor,875.0±90.6
same,response of HT-29 tumor to drug,"[1]; largest tumors of all groups, FIG. 4",not responsive
"O=c1[nH]cc(F)c(=O)[nH]1 [5-FU, 5-fluorouracil]",mean tumor volume,[1]; Nude mice bearing HT-29 tumor,752.5±104.2
same,mice still alive (survival),"[1]; at completion of the study period (42 days), Nude mice bearing HT-29 tumor",25%
same,mean tumor volume,"[2]; 19 days following treatment initiation, mean±SEM, in mm³ (unit assumed)",368.5±63.7
same,Tumor Doubling Time,"[2]; from best-fit curve analysis, Nude mice bearing HT-29 tumor",7.4 days
same,mice with Grade 3-4 lymphopenia,"Balb/c mice [3]; NCI grading on % of baseline lymphocyte levels (Grade 3 25-<50% LLN, Grade 4 <25% LLN), one week following drug treatment",100%
same,grade 4 neutrophil toxicity mice with neutrophil cell counts between 0 and 99,"Balb/c mice [3]; female, Balb/c, mouse, in vivo",100%
same,mice with grade 4 neutrophil toxicity,Balb/c mice [3]; [7],100%
same,mice with grade 4 platelet toxicity,Balb/c mice [3]; [7],25%
same,mice with grade 2-3 weight loss toxicity,Balb/c mice [4]; [8],100%
same,mice surviving for up to 14 days,Balb/c mice [4]; normal Balb/c mice,36%
"CCCCCOC(=O)Nc1nc(=O)n([C@@H]2O[C@H](C)[C@@H](O)[C@H]2O)cc1F [Xeloda, N4-pentoxylcarbonyl-5′-deoxy-5-fluorocytidine]",mice with grade 1 weight loss toxicity (only grade seen),[5],36%
same,Tumor Doubling Time,"[6]; from best-fit linear regression of exponential tumor growth, 14 consecutive days dosing",10.1 days
same,survival,[6]; on day 33 of the experiment (day 1 = first day of drug dosing),38%
Nc1ccn([C@@H]2O[C@H](CO)[C@@H](O)C2(F)F)c(=O)n1 [gemcitabine],weight loss toxicity grade,Balb/c mice [4]; [8],grade 1
